Laboratory results taken from patent publication US20220213170A1, “PEPTIDES” (Hubro Therapeutics AS, priority 2019, published 2022).
Where no end group is shown, it is not given here.

How the values were obtained:
[1] = system: tumour infiltrating Th cells in MSI+ tumours; settings: cited from earlier work
[2] = system: T cells (PBMC) from healthy donors; assay: T-cell proliferation (3H-thymidine uptake, stimulation index) after in vitro stimulation of PBMC with fsp2+fsp4 cocktail; type: cell-based, human; settings: for Immune response of Donor 3: Donor 3, stimulation with fsp2 and fsp4 mixture, FIG. 11; for Immunogenicity relative to fsp3 and fsp4: FIGS. 10 and 11, peptides with wild-type TGFβR2 amino acids vs without; for Immunogenicity (T cell proliferation, stimulation index): first and second round of stimulation with fsp2+fsp4, 10 μM test peptide, FIGS. 10-12
Method: Fresh buffy coats from four healthy donors were obtained from a blood bank.
Peripheral blood mononuclear cells (PBMC) isolated from fresh buffy coats from four healthy donors were counted and suspended in DC medium to 15*10^6 cells/ml, and subsequently diluted with DC-medium to 4*10^6 cells/ml (Table 6).
Four 24-well plates were used for each donor, with 4*10^6 cells per well (each well has a volume of 1 ml).
Peptide cocktail: Solution of peptides fsp2+fsp4, containing 10 μM of each peptide. 40 μl peptide solution was added to each well.
The plates were incubated in a cell incubator for 14 days (37° C., 5% CO2). IL-2 and IL-7 were added on day 3. The cells were inspected daily.
Test peptides: fsp2+fsp4 (SEQ ID NOs: 5 and 7), fsp1 (SEQ ID NO: 4), fsp2 (SEQ ID NO: 5), fsp3 (SEQ ID NO: 6), fsp4 (SEQ ID NO: 7), fsp5 (SEQ ID NO: 3).
Cells and reagents were added to plate wells (in triplicate) as described in Tables 7 and 8 below. The total volume added to each well was 0.20 ml. • T cells (PBMC): 50 000 cells/well (0.25*10^6 cells/ml) • APC: Irradiated (30Gy, 8 minutes) autologous feeder cells: 50 000 cells/well • Peptide (fspx): […] peptide/well (each peptide), concentration: 10 μM peptide. (fsp was dissolved in DMSO before dilution to correct concentration)
The plates were incubated in a cell incubator for 48 hours (37° C., 5% CO2).
After incubation for 48 hours, 20 μl 3H-tThymidine solution (5 μCi/ml) was added to each well and the plates were incubated for approximately 17 hours (37° C., 5% CO2).
After 17 hours the cells were harvested (Unifilters) and dried on the filters at 45° C. until completely dry. After covering the bottom of the Unifilters with adhesive covers (delivered with the Unifilters) 25 μl micro scintillation liquid was added to each well, the plate was covered with TopSeal and 3H-Thymidine uptake was measured as counts per minute (CPM) using a microplate scintillation counter.
The T cell proliferation results after the first round of in vitro stimulation with the cocktail of fsp2 and fsp4 peptides are presented as stimulation index (SI) in FIG. 10. SI=mean CPM (triplicates) of (T cells+APC+test peptide(s)) divided by mean CPM (triplicates) of (T cells+APC). SI≥2 is a clear signal of immunogenicity.
PBMCs harvested after the first in vitro stimulation were re-stimulated in vitro according to the protocol set out above, with 2×10^6 cells per well. T-cell proliferation was tested according to the protocol set out above.
The T cell proliferation results after a second round of in vitro stimulation with the cocktail of fsp2 and fsp4 peptides are presented as stimulation index (SI) in FIG. 11.

[3] = Peptide stability (purity by UPLC after lyophilisation or storage); type: physicochemical; settings: purified peptide, dropped from around 90% before lyophilisation
Method: A batch of fsp5 (SEQ ID NO: 3) was prepared by solid phase peptide synthesis (SPPS) by using FMOC chemistry and Prelude synthesizer (Gyros Protein Technologies Inc., USA). The crude peptide was analysed by UPLC and MS. […] UPLC system: Column; Acquity UPLC BEH C18 […], […], detection; PDA 210-500 nm, solvent A); 0.1% TFA in water, solvent B; 0.1% TFA in MeCN, gradient: 20-70% B (2-10 minutes, linear).
When the purity of the small amount of purified fsp5 (SEQ ID NO: 3) was reassessed by UPLC after lyophilisation, the purity had dropped from around 90% to below 50% as shown in FIG. 4.

Peptide solubility = type: physicochemical
Method: The peptide was difficult to dissolve and it was attempted to dissolve the crude fsp5 (SEQ ID NO: 3) (˜150 mg) in approximately 4 ml 50% MeCN in water under gentle heating.
Another batch of fsp5 (SEQ ID NO: 3) was prepared, dissolved in neat DMSO under gentle heating and purified by preparative HPLC. Again, only very small amounts of purified fsp5 (SEQ ID NO: 3) were obtained.

[4] = system: T-cells from PMBCs from four healthy donors; assay: T-cell proliferation (stimulation index) after induction of PBMC with fsp2, fsp8 and fsp9 mixture; type: cell-based, human; settings: for Immunogenicity (T-cell proliferation, stimulation index): first round of stimulation, T-cells induced with fsp2+fsp8+fsp9, FIG. 13
Method: The same protocol as that set out in Example 7 was used to test the immunogenicity of fsp6 and fsp7 (SEQ ID NO: 26 and SEQ ID NO: 27, respectively), except for the peptide mixture used to induce T-cells from PMBCs from fresh buffy coats from four healthy donors. The peptide mixture used in this Example to induce T-cells from PMBCs was made up of fsp2 (SEQ ID NO: 5; 10 μM), fsp8 (SEQ ID NO: 31; 10 μM) and fsp9 (SEQ ID NO: 32; 10 μM). Fsp8 (SEQ ID NO: 31; […]) is a peptide of ASTE1 having a −1a frameshift mutation, and fsp9 (SEQ ID NO: 32; […]) is a peptide of TAF1β having a −1a frameshift mutation.
At day 14 after induction, a T-cell proliferation assay was carried out as in Example 7, using fsp2 (SEQ ID NO: 5), fsp6 (SEQ ID NO: 26) and fsp7 (SEQ ID NO: 27) as test peptides. As fsp8 and fsp9 have very different amino acid sequences from fsp2, only fsp2 would be able to induce T-cells which are capable of recognising and being stimulated by fsp2, fsp6 and fsp7. […] Two further rounds of T-cell stimulation were also carried out, with a T-cell proliferation assay being carried out 14 days after each stimulation.
The T-cell proliferation results after the first round of in vitro stimulation are presented as stimulation index (SI) in FIG. 13. […] It is also expected, in view of the results shown in FIGS. 11 and 12, that a peptide having the sequence of fsp6 (SEQ ID NO: 26) but having an amino acid substitution corresponding to that in fsp2, and particularly a C-to-G amino acid substitution as in fsp2, is also immunogenic and is useful as a vaccine or treatment against cancer. […] Thus, it is expected that fsp6a (SEQ ID NO: 28), which is identical to fsp6 (SEQ ID NO: 26) except for the same C-to-G amino acid substitution as fsp2 (SEQ ID NO: 5), will also be immunogenic.

[5] = system: colorectal cancer cell line HCT116; settings: cell line carries the corresponding frameshift mutation; cited from earlier work
CTL = settings: cited from earlier work
T-cells = settings: after four rounds of stimulation of the T-cells; cited from earlier work
[6] = system: CTLs (HLA-A2.1 restricted); settings: cited from earlier work
[7] = patients recognising the peptide

Q: For “AMTTSSSQKNITPAILTCC [p537, prior art peptide of mutTGFβR2]”, which “Immunogenicity (Saeterdal, PNAS)” value [1] is on record?
A: not immunogenic

Q: What does the source list for “KCIMKEKKSLVRLSSCVPVALMSA (listed as Homo sapiens) [fsp1]”?
A: Immune response of Donor 3 [2]: showed an immune response; Immunogenicity relative to fsp3 and fsp4 [2]: more immunogenic; Immunogenicity (T cell proliferation, stimulation index) [2]: immunogenic

Q: For “KCIMKEKKSLVRLSSCVPVALMSAMTTSSSQKN (listed as Homo sapiens) [fsp5]”, which “Immunogenicity relative to fsp3 and fsp4” value [2] is on record?
A: more immunogenic

Q: And the “Immunogenicity (T cell proliferation, stimulation index)” value [2]?
A: immunogenic

Q: What about the “Purity by UPLC after lyophilisation (stability)” value [3] of the same substance?
A: below 50%

Q: And the “Solubility: effect of water on crude DMSO solution” value (Peptide solubility; addition of even small amounts of water to crude DMSO solution)?
A: precipitation of the peptide

Q: And the Solubility (Peptide solubility; crude peptide ~150 mg in approximately 4 ml 50% MeCN in water under gentle heating)?
A: no clear solution could be obtained

Q: Which results are given for “KGIMKEKKSLVRLSSCVPVALMSA (not fully specified) [fsp2]”?
A: Immune response of Donor 3 [2]: showed an immune response; Immunogenicity relative to fsp3 and fsp4 [2]: more immunogenic; Immunogenicity (T cell proliferation, stimulation index) [2]: immunogenic; Immunogenicity relative to fsp7 ([4]; FIG. 13): much more immunogenic

Q: Which results are given for “PKCIMKEKKKSLVRLSSCV [p541, prior art peptide of mutTGFβR2]”?
A: Immunogenicity (Saeterdal, PNAS) [1]: immunogenic; Induction of T-cell responses in patients [1]: able to induce T-cell responses in some patients

Q: Which results are given for “RLSSCVPVA [p573, prior art peptide of mutTGFβR2]”?
A: Lysis of HCT116 [5]: able to lyse; Generation of CTL line and clones (CTL): able to generate a CTL line and several CTL clones; Immunogenicity (Saeterdal, Cancer Immunol Immunother) (CTL): immunogenic; Immunogenicity (FIG. 14 of EP1078000) (T-cells): not immunogenic; Activation of specific CTLs in vitro ([6]; HLA-A2.1 restricted): capable of activating specific CTLs; Immunogenicity (FIG. 1 of Linnebacher et al.) [6]: immunogenic

Q: Which “Immunogenicity (FIG. 14 of EP1078000)” value (T-cells) does the source give for “SLVRLSSCV [p523, prior art peptide of mutTGFβR2]” here?
A: immunogenic

Q: What about the “Immunogenicity (FIG. 1 of Linnebacher et al.)” value [6] of the same substance?
A: not immunogenic

Q: What does the source list for “SLVRLSSCVPVALMSAMTTSSSQ [p538, prior art peptide of mutTGFβR2]”?
A: Immunogenicity (Saeterdal, PNAS) [1]: highly immunogenic; Recognition by patients having spontaneous MSI+ colon cancer [1, 7]: two of three; Recognition by patients with HNPCC [1, 7]: all three

Q: Which “Immunogenicity (Saeterdal, PNAS)” value [1] does the source give for “SPKCIMKEKKSLVRLSSCVPVA [P540, prior art peptide of mutTGFβR2]” here?
A: immunogenic

Q: What about the “Induction of T-cell responses in patients” value [1] of the same substance?
A: able to induce T-cell responses in some patients

Q: For “SSGVPVALMSAMTTSSSQKN (also: 2TFA salt) [fsp4]”, which “Immunogenicity (T cell proliferation, stimulation index)” value [2] is on record?
A: immunogenic

Q: What does the source list for “fsp6: Peptide of SEQ ID NO: 26; same sequence as fsp2 but truncated at the C-terminus and without C-to-G substitution (KCIMKEKKSLVRLSSCV; listed as Homo sapiens)”?
A: Immunogenicity relative to fsp2 ([4]; FIG. 13): less immunogenic; Immunogenicity relative to fsp7 ([4]; FIG. 13): much more immunogenic; Immunogenicity (T-cell proliferation, stimulation index) [4]: immunogenic

Q: For “fsp7: Peptide of SEQ ID NO: 27; same amino acid sequence as fsp2 but truncated at the N-terminus (VRLSSCVPVALMSA; listed as Homo sapiens)”, which “Immunogenicity (T-cell proliferation, stimulation index)” value [4] is on record?
A: too truncated at the N-terminus compared to fsp2 (SEQ ID NO 5) to be immunogenic
